The subject of the assay is HeLa cells. Briefly: Flow cytometry fold response, reporter variants co-expressed with EGFP-HaloTag[3-19]-5×Gly/Ser-VS-HiBiT. The note with it: 100 nM ligand, compared to the less fluorogenic ligand JF646. It is filed as cell-based. On the procedure:
FIG. 95. […] Approximately 48 hours post-transfection, the cells were labeled with 100 nM JF646 HaloTag® ligand. Following a 1-hour incubation with the ligand, the cells were washed with DPBS media for 30 minutes (2× for 15 minutes each). Subsequently, the cells were lifted, and their fluorescence activity was measured using flow cytometry. […] The fold response of each assay condition was calculated as the ratio of mean fluorescence signal in the second quadrant (double positive) by the mean fluorescence signal in the third (JF646+) quadrant.
FIG. 96. […] Approximately 48 hours post-transfection, the cells were labeled with 100 nM JF635 HaloTag® ligand. Following a 1-hour incubation with the ligand, the cells were washed with DPBS media for 30 minutes (2× for 15 minutes each). Subsequently, the cells were lifted, and their fluorescence activity was measured using flow cytometry. […] The fold response of each assay condition was calculated as the ratio of mean fluorescence signal in the second quadrant (double positive) by the mean fluorescence signal in the third (JF646+) quadrant.
A general note: Flow cytometry measures light scatter and fluorescence of single cells or particles in a stream.

Structures are written as SMILES.

`C[Si]1(C)c2cc(N3CC(F)C3)ccc2C2(OC(=O)c3ccc(C(=O)NCCOCCOCCCCCCCl)cc32)c2ccc(N3CC(F)C3)cc21` [JF635]: the Fluorescence fold response entry is reported as “fold responses are enhanced”.

Source of the values: patent publication US20240368565A1, “COMPLEMENTATION-BASED TAGS AND REPORTERS FOR DUAL-MODALITY LABELING” (Promega Corporation, priority 2023, published 2024).
